Where “and” joins values, the source holds several entries; their conditions need not be identical. Identical values can stand only once.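 Dose response: 5 concentrations. Exposure: 48 h. Format: 96-well plates. Endpoint: linear interpolation; highest concentration if not reached. Here, GI50 denotes the concentration required for 50% inhibition of growth. TGI is the concentration that stops growth completely.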
Experiments:
Assay in all cases: NCI tumour cell line growth inhibition, 48 h
MALME-3M melanoma = test system: MALME-3M melanoma
T-47D breast = test system: T-47D breast
RXF 393 renal = test system: RXF 393 renal
LOX IMVI melanoma = test system: LOX IMVI melanoma
HT29 colon = test system: HT29 colon
BT-549 breast = test system: BT-549 breast
SK-OV-3 ovarian = test system: SK-OV-3 ovarian
OVCAR-4 ovarian = test system: OVCAR-4 ovarian
NCI-H226 lung = test system: NCI-H226 lung
UO-31 renal = test system: UO-31 renal

Compound	GI50 (MALME-3M melanoma)	TGI (MALME-3M melanoma)	GI50 (T-47D breast)	TGI (T-47D breast)	GI50 (RXF 393 renal)	TGI (RXF 393 renal)	GI50 (LOX IMVI melanoma)	TGI (LOX IMVI melanoma)	GI50 (HT29 colon)	TGI (HT29 colon)	GI50 (BT-549 breast)	TGI (BT-549 breast)	GI50 (SK-OV-3 ovarian)	TGI (SK-OV-3 ovarian)	GI50 (OVCAR-4 ovarian)	TGI (OVCAR-4 ovarian) [µM]	GI50 (NCI-H226 lung)	TGI (NCI-H226 lung)	GI50 (UO-31 renal)	TGI (UO-31 renal) [µM]
O=C1C=CC[C@H](/C=C/c2ccccc2)O1	18.5 µM	> 100 µM	6.29 µM	37.7 µM	5.23 µM	> 100 µM	1.7 µM	7.93 µM	1.88 µM	23.9 µM	2.28 µM	19.3 µM	5.54 µM	99.4 µM	1.39 µM	10.7	0.787 µM	4.31 µM	3.89 µM	8.99
COc1ccccc1N1CCN(CCc2c[nH]c3cc4c(cc23)OCO4)CC1	27.9 µM	> 100 µM	19.8 µM	77.3 µM	17.9 µM	92.9 µM	11.6 µM	35.7 µM	3.39 µM	> 100 µM	23.3 µM	> 100 µM	81.6 µM	> 100 µM	37.7 µM	> 100	29.9 µM	> 100 µM	20.3 µM	> 100
CNCCNc1c2c(c(NCCNC)c3[nH]ccc13)C(=O)c1ccccc1C2=O	0.258 µM	1.32 µM	11.4 µM	> 27 µM	0.214 µM	0.752 µM	< 0.0231 µM	0.0717 µM	1.35 µM	5.23 µM	4 µM	8.21 µM	5.67 µM	13.3 µM	1.66 µM	5.11	0.215 µM	1.84 µM	0.201 µM	0.818
COc1cc2c(cc1OCCCCCOc1ccc(-n3c(C)nc4ccccc4c3=O)cc1)N=C[C@@H]1CCCN1C2=O	0.236 µM	0.585 µM	0.324 µM	–	0.21 µM	0.39 µM	0.176 µM	0.447 µM	0.317 µM	> 100 µM	0.137 µM	0.34 µM	0.41 µM	1.89 µM	0.515 µM	13.2	0.214 µM	0.466 µM	0.336 µM	1.71
COc1ccc(C(=O)/C=C/c2ccc3c(c2)OCO3)c(OCc2ccccc2)c1	–	> 100 µM	–	> 100 µM	–	> 100 µM	–	> 100 µM	–	> 100 µM	–	> 100 µM	–	> 100 µM	–	> 61	–	> 100 µM	–	> 100
CNC(=O)CC1NC(=O)c2csc(n2)-c2ccc(-c3nc(C4=NC(C(=O)N5CCCC5C(N)=O)CO4)cs3)nc2-c2csc(n2)-c2csc(n2)C(C(C)C)NC(=O)CNC(=O)c2csc(n2)C(C(C)C)NC(=O)c2nc1sc2C (stereo unspecified)	–	> 25 µM	> 25 µM	> 25 µM	> 25 µM	> 25 µM	> 25 µM	> 25 µM	< 0.001 µM	–	> 25 µM	4.5 µM and > 25 µM	> 25 µM	6.03 µM and > 25 µM	> 25 µM	> 25	> 25 µM	> 25 µM	> 25 µM	> 25
Nc1nc(N)c2c(n1)NC(c1ccc(F)cc1)C1CCc3ccccc3C1=N2 (stereo unspecified)	2.52 µM	15 µM	3.86 µM	17.7 µM	5.48 µM	20 µM	3.98 µM	16.1 µM	3.84 µM	15 µM	3.89 µM	16.6 µM	11.1 µM	23.3 µM	3.98 µM	18.2	5.97 µM	24.5 µM	3.34 µM	17.3
COC(=O)CCC1CCC(c2cc(F)ccc2F)(S(=O)(=O)c2ccc(Cl)cc2)CC1 (stereo unspecified)	67.1 µM	> 100 µM	39.3 µM	> 100 µM	55.4 µM	> 100 µM	91.5 µM	> 100 µM	82.2 µM	> 100 µM	70.6 µM	> 100 µM	> 100 µM	> 100 µM	45.5 µM	> 100	86.8 µM	> 100 µM	28 µM	> 100
CCN(CC)CCn1c2ccccc2c(=O)c2c(O)ccc(O)c21	–	49.3 µM	–	34.3 µM	–	35.9 µM	–	36.3 µM	–	59.8 µM	–	44.7 µM	–	> 81 µM	–	34.5	–	> 56.2 µM	–	63.8
Cc1cc(Cc2cc(C)cc(C(C)(C)C)c2O)c(O)c(Cc2cc(C)cc(C(C)(C)C)c2O)c1	–	5.13 µM	–	11.3 µM	–	8.21 µM	–	10.9 µM	–	7.78 µM	–	10.6 µM	–	10.9 µM	–	11.7	–	11.5 µM	–	10.4
CC1(O)CC(c2nc(-c3ccc4ccc(-c5ccccc5)nc4c3)c3c(N)nccn23)C1 (stereo unspecified)	7.95 µM and > 10 µM	38.2 µM and > 10 µM	3.94 µM and 2.82 µM	24.1 µM and > 10 µM	3.71 µM and 4.96 µM	13.7 µM and > 10 µM	7.41 µM and 6.46 µM	45.4 µM and > 10 µM	0.105 µM and 0.0588 µM	21.5 µM and > 10 µM	6.92 µM and 5.87 µM	24.3 µM and > 10 µM	10.4 µM and 9.84 µM	> 100 µM	7.5 µM and > 10 µM	> 95	3.72 µM and 3.12 µM	49.7 µM and > 10 µM	3.6 µM and 1.65 µM	> 76.3
Oc1ccccc1C=Nc1nc(SCc2ccccc2)nc2[nH]ncc12	34.8 µM	> 100 µM	26.7 µM	70.2 µM	32.5 µM	> 100 µM	56.3 µM	> 100 µM	54.6 µM	> 100 µM	> 100 µM	> 100 µM	> 100 µM	> 100 µM	> 100 µM	> 100	54.3 µM	> 100 µM	94.8 µM	> 100
CCOC(=O)/C(=C\c1ccc(C#N)cc1)C(C)=O	–	31.5 µM	–	68.2 µM	–	30.6 µM	–	34.5 µM	–	> 100 µM	–	37 µM	–	> 100 µM	–	97.9	–	89.3 µM	–	28
N#CC1=C(N)Oc2c(sc3c(Br)cccc23)C1c1ccc(Br)cc1 (stereo unspecified)	1.39 µM	20.7 µM	0.397 µM	4.67 µM	1.97 µM	6.18 µM	0.747 µM	3.95 µM	0.315 µM	1.21 µM	1.32 µM	12.7 µM	0.316 µM	3.38 µM	1.46 µM	15.5	4.28 µM	20.2 µM	1.95 µM	11.8
COc1cc(NC(=O)CSc2nc3ccc(C)cc3c(=O)n2Cc2ccccc2)cc(OC)c1OC	4.07 µM	31.3 µM	4.01 µM	66.9 µM	2.24 µM	8.23 µM	55 µM	> 100 µM	> 100 µM	> 100 µM	2.98 µM	20 µM	3.06 µM	8.58 µM	3.41 µM	33.3	3.2 µM	22.3 µM	5.97 µM	> 100
Oc1ccccc1CNCC12CC3CC(CC(C3)C1)C2	21.2 µM	48.8 µM	20.1 µM	44.6 µM	16.7 µM	40.3 µM	20.6 µM	76 µM	15.2 µM	47.7 µM	14 µM	74.8 µM	35.8 µM	> 100 µM	48.8 µM	> 100	68.5 µM	> 100 µM	20.3 µM	> 100
COc1cccc2c1C(=O)c1c(O)c3c(c(O)c1C2=O)C[C@@](O)(C(=O)CO)C[C@@H]3O[C@H]1C[C@H](N)[C@@H](O)[C@H](C)O1	0.145 µM	0.718 µM	0.128 µM	3.19 µM	0.205 µM	1.02 µM	0.0826 µM	2.57 µM	–	7.75 µM	0.128 µM	0.474 µM	0.318 µM	31.6 µM	0.546 µM	5.87	0.068 µM	0.222 µM	0.866 µM	5.89
Cc1cc2[nH]c(=O)c3c4ccccc4cn3c2cc1C	22.2 µM	37.5 µM	15.4 µM	50 µM	12 µM	27.4 µM	2.04 µM	4.02 µM	6.09 µM	> 100 µM	19.6 µM	40.9 µM	18.4 µM	34.5 µM	13.5 µM	27.6	15.1 µM	36.7 µM	14.6 µM	28
Cc1cc(=O)[nH]c2cc3c(c4c(n3Cc3ccc(Cl)cc3Cl)CC(C)(C)CC4=O)c(O)c12	29.9 µM	75.9 µM	> 100 µM	> 100 µM	> 100 µM	> 100 µM	> 100 µM	> 100 µM	> 100 µM	> 100 µM	19.6 µM	64.2 µM	> 100 µM	> 100 µM	> 100 µM	> 100	> 100 µM	> 100 µM	> 100 µM	> 100
Clc1ccc2nnnn2n1	12.1 µM	31.4 µM	6.25 µM	24 µM	2.75 µM	8.65 µM	3.64 µM	> 100 µM	2.93 µM	8.03 µM	2.87 µM	9.92 µM	10.5 µM	92.9 µM	5.21 µM	17.7	4.84 µM	35.9 µM	3.52 µM	> 100

Reference: PubChem BioAssay (NCI)
